How the values were obtained:
Format in all cases: physicochemical
[1] = Molar extinction coefficient of i-line (365 nm), UV-visible absorbance in acetonitrile; details: 0.25 mmol/L in acetonitrile, cell length 1 cm
Method in brief: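 Compound at 0.25 mmol/L in acetonitrile; UV-visible absorbance scanned 200–500 nm in a 1 cm path cell. ε365 calculated from the absorbance at 365 nm.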

[2] = Solvent solubility (butyl acetate, toluene or PGMEA); details: for Solvent solubility PGMEA / Solvent solubility Butyl acetate / Solvent solubility Toluene: 25° C.
Method in brief: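 Test-tube titration at 25° C: 0.1 g photoacid generator, solvent (butyl acetate, toluene or PGMEA) added in 0.2 g portions until fully dissolved. Scored as not dissolved if still undissolved after 20 g solvent.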

[3] = Thermal decomposition temperature (TG/DTA, 2% weight reduction); details: point of 2% weight reduction; 10° C./minute from 30° C. to 500° C.; nitrogen atmosphere
Description: The synthesized photoacid generator was measured for the change in weight under a temperature increasing condition of 10° C./minute from 30° C. to 500° C. under a nitrogen atmosphere using a thermal gravimetric/differential thermal analyzer (TG/DTA 6200, available from Seiko Instruments Inc.), and a point where the weight was reduced by 2% was defined as the thermal decomposition temperature.

Molar extinction coefficient [1]	Solvent solubility PGMEA [2]	Solvent solubility Butyl acetate [2]	solubility to a solvent (in words) ([2]; summary of Tables 4 to 6)	Solvent solubility Toluene [2]	Thermal decomposition temperature [3]	SMILES
330 L/mol/cm	1.9 wt %	1.6 wt %	insufficient	3.2 wt %	228 °C	O=C1c2cccc3cccc(c23)C(=O)N1OS(=O)(=O)c1c(F)c(F)c(F)c(F)c1F [A′-3, 1,8-naphthalimide pentafluorobenzenesulfonate, reference compound]
14000 L/mol/cm	1.2 wt %	1.5 wt %		2 wt %	245 °C	CCCOc1ccc2c3c(cccc13)C(=O)N(OS(=O)(=O)CC13CCC(CC1=O)C3(C)C)C2=O (stereo not drawn) [Example A-42, 4-n-propoxy-1,8-naphthalimide-(+)-10-camphorsulfonate]

Source: US20160368879A1, “PHOTOACID GENERATOR, AND RESIN COMPOSITION FOR PHOTOLITHOGRAPHY” (SAN-APRO LTD., priority 2013, published 2016)
